# Square brackets hold non-standard residues; d marks the D form. Ends that are not written are not given here. Peptide text beside a SMILES is read from it. Orn = NCCC[C@H](N)C(=O)O
# Legend:
# Gram-negative bacteria = details: cited from earlier work
# [1] = tested on: SRB (D. vulgaris) on SAE 1018 mild steel; test: Continuous reactor with SAE 1018 mild steel and SRB, electrochemical impedance spectroscopy
# Source text: (§1) A continuous reactor was used to develop biofilms on metal surfaces as previously described (Jayaraman et al., 1997c). Electrochemical impedance spectroscopy (EIS) was used to obtain impedance data in at least duplicate experiments using a Solarton-Schlumberger electrochemical measurement unit (SI 1280, Schlumberger Technical Instruments Division, San Jose, Calif.) interfaced to a Macintosh computer (PowerMac 7100/80, Apple Computers, Cupertino, Calif.) running EISIS electrochemical experimentation software (University of California, Irvine) (THALES, a similar commercial software, can also be used). The open-circuit potential (OCP) was measured as the potential between the metal specimen and the reference electrode (Ag/AgCl), and the polarization resistance was determined as the dc limit of the impedance using the ANALEIS software developed by Mansfeld et al. (ASTM Special Technical Protocol 1154:186 (1992)). Continuous culture corrosion rates were estimated from the experimental polarization resistance Rp based on the Stern-Geary equation Rp=B/Icorr, where B is a parameter depending on the Tafel slopes and icorr is the corrosion current density which can be converted into a corrosion rate using Faraday's law (Mansfeld, F., The polarization resistance technique for measuring corrosion currents, In Fontana, M. G., Staehle, R. W. (ed.), Advances in Corrosion Science and Technology, Plenum Press, New York (1976)).
# A 3% (vol/vol) SRB inoculum (culture age 24–48 hours) was added to the reactor after 3 to 5 days of aerobic biofilm development. […] All antimicrobials were simultaneously added to the nutrient feed and the reactor at appropriate concentrations.
# [2] = tested on: SRB (D. vulgaris) on 304 stainless steel; test: Continuous reactor with 304 stainless steel and SRB, electrochemical impedance spectroscopy; details: 100 μg/mL added to P. fragi K biofilm 24 hours before D. vulgaris
# Procedure: Batch culture corrosion experiments using SAE 1018 mild steel coupons (2.5 cm diameter, 1.2 mm thick) were performed in triplicates in 250 mL Erlenmeyer flasks at 30° C. without shaking as described previously (Jayaraman et al., 1997a). A continuous reactor (Jayaraman et al., 1997c) was also used to develop biofilms on 304 stainless steel and monitor corrosion using electrochemical impedance spectroscopy (EIS) in a minimum of two independent reactors using a Solarton-Schlumberger electrochemical measurement unit (SI 1280, Schlumberger Technical Instruments Division, San Jose, Calif.) interfaced to a Macintosh computer (PowerMac 7100/80, Apple Computers, Cupertino, Calif.) running EISIS electrochemical experimentation software (University of California, Irvine) (similar commercial software, THALES, can also be used). The open circuit potential (OCP) was measured as the potential between the metal specimen and a Ag/AgCl reference electrode, and the polarization resistance (Rp) was determined as the low-frequency value of the impedance (where the imaginary part of the impedance was zero or negligible). Continuous culture corrosion rates were estimated as the inverse of the polarization resistance (Macdonald, D. D. and M. C. H. McCubre, Applications of impedance spectroscopy, p. 262–267. In J. R. Macdonald (ed.), Impedance spectroscopy: Emphasizing solid materials and systems, John Wiley & Sons, New York (1987); Stem, M., Journal of Electrochemical Society, 105(11):638–647 (1958)).
# as §1, with “Continuous culture corrosion rates were estimated from the experimental polarization resistance Rp based on the Stern-Geary equation Rp=B/Icorr, where B is a parameter depending on the Tafel slopes and icorr is the corrosion current density which can be converted into a corrosion rate using Faraday's law (Mansfeld, F., The polarization resistance technique for measuring corrosion currents, In Fontana, M. G., Staehle, R. W. (ed.), Advances in Corrosion Science and Technology, Plenum Press, New York (1976)).” left out
# D. vulgaris (ATCC 29579) = test: SRB inhibitory assay: viability after one-hour exposure, MPN technique; format: cell-based
# Procedure: (§2) D. vulgaris (ATCC 29579) and D. gigas (ATCC 19364) were obtained from the American Type Culture Collection and cultivated in 15 mL screwcap tubes with 10 mL of modified Baar's medium (ATCC medium 1249) supplemented with 100 μL each of the oxygen-scavengers 4% sodium sulfide and Oxyrase (Oxyrase Inc., Mansfeld, Ohio). Initial cultures were grown from −85° C. glycerol stocks; all subsequent cultures were grown with a 3% inoculum from the initial culture maintained at 30° C. without shaking. […] SRB were also cultured periodically in the presence of 0.1% ferrous ammonium sulfate, and the presence of these sulfate-reducers was confirmed by the detection of black iron sulfide in the culture tubes. The desulfoviridin assay was also performed after each MPN assay to confirm the presence of D. vulgaris or D. gigas by its red color under UV light due to the release of the chromophore of the pignment desulfoviridin. (Postgate, 1984).
# (§3) For determining the viability indices (Romeo, et al., 1988) of SRB, a late-exponential phase culture (O.D600 0.16 to 0.19 which corresponded to an initial cell number of 5–9×10^4 cells/mL) was exposed to various concentrations of antimicrobials for 1 hour at 30° C. One mL of cells was harvested, washed once in fresh modified Baar's medium to remove cellular debris, and resuspended in 1 mL of fresh modified Baar's medium supplemented with 10 μL each of Oxyrase (Oxyrase Inc., Mansfeld, Ohio) and 4% sodium sulphide. Aliquots of 450 μL were dispensed in 500 μL sterile eppendorf tubes and appropriate amounts of antimicrobials added and incubated at 30° C. The effectiveness of treatment was determined by the multiple-tube most-probable-number (MPN) fermentation technique. (Anonymous. Multiple-tube fermentation technique for members of the coliform group, pp. 9–45 to 9–51. In A. E. Greenberg, L. S. Clesceri, and A. D. Eaton (eds.), Standard Methods for the Examination of Water and Wastewater, 18 ed. American Public Health Association, American Water Works Association, and Water Pollution Control Federation, New York (1992)) (hereafter, Greenberg, 1992).
# (§4) The MPN test for enumerating SRB was performed in three 12 mL tubes with a 1000 μL inoculum of SRB, three 12 mL tubes with a 500 μL inoculum, and three 12 mL tubes with a 100 μL inoculum. All nine tubes contained a final volume of 10 mL of modified Baar's medium supplemented with 100 μL each of 4% sodium sulfide and Oxyrase (Oxyrase Inc., Mansfeld, Ohio). The tubes were monitored for 72 hours to determine the number of tubes that were positive for growth. Growth was determined by the increase in culture turbidity, and the MPN index/mL was calculated using the Thomas formula. (Greenberg 1992).
# D. gigas (ATCC 19364) = test: as above; format: cell-based
# Procedure: as §2, §3, §4
# P. fragi K = test: Growth of P. fragi K in overnight suspension cultures with antimicrobials; format: cell-based; details: 100 μg/mL, overnight suspension culture
# E. coli BK6 = test: Antimicrobial activity of concentrated culture supernatants in suspension; format: cell-based; details: buffer + kanamycin 100 μg/mL
# Procedure: B. subtilis BE1500 containing the plasmid pBE92-based constructs expressing the antimicrobial peptide genes was grown in 25 mL of LB medium to late-exponential phase (O.D600=0.70–1.0) at 37° C. The cells were collected by centrifugation at 10,000×g for 10 mins at 4° C., and the supernatant was concentrated 25-fold using a SpeedVac concentrator (Model 200H, Savant Instruments Inc., Holbrook, N.Y.).
# Expression of indolicidin and bactenecin in Bacillus was determined in duplicates by exposing E. coli BK6 in suspension to concentrated culture supernatants. E. coli BK6 was grown to an O.D600 of 0.20–0.25, pelleted at room temperature, and resuspended in different volumes (50 or 100 μL) of the concentrated supernatant. The cell suspension was incubated at 30° C. for 1 hour without aeration, and appropriate dilutions were plated on LB agar plates to determine the antimicrobial activity of the supernatant.
# wild-type P. fragi = test: Live/Dead stain control visualized with CSLM; format: cell-based; details: 200 μg ml^−1 added to 12-hour culture, visualized after 48 hours
# Procedure: Cells and polysaccharide were stained for 30 min simultaneously in 4 ml of staining solution using the Live/Dead Baclit bacteria viability assay kit protocol (1.125 μl ml^−1 of each stain component, Molecular Probes (Eugene, Oreg.)) and calcofluor (300 μl ml^−1, Sigma (St. Louis, Mo.), Stewart et al. 1995). The live/dead viability kit distinguishes live and dead cells based on membrane integrity; live cells with intact membranes stain green, and dead cells with compromised membranes stain red.
# As a control experiment to verify that the Live/Dead stain can be used to quantify populations with live and dead cells, 200 μg ml^−1 of kanamycin was added to a 12-hour wild-type P. fragi culture and visualized with CSLM after 48 hours.
# Staphylococcus aureus = details: 5–25 μg/mL; cited from earlier work
# B. subtilis WB600 = test: Susceptibility of host strains to purified antimicrobials (plate counts); format: cell-based; details: one hour exposure at 30° C.
# Escherichia coli = details: 5–25 μg/mL; cited from earlier work
# B. subtilis BE1500 = test: Susceptibility of host strains to purified antimicrobials (plate counts); format: cell-based; details: one hour exposure at 30° C.
# Procedure: (§5) To determine the susceptibility of the hosts B. subtilis BE1500 and B. polymyxa to the expressed antimicrobials, these strains were grown from a single colony in 25 mL of LB medium with shaking at 37° C. to an O.D600 of 0.40–0.45. One mL aliquots were collected, washed with fresh LB medium and resuspended in 100 μL fresh LB medium in sterile eppendorf tubes. The antimicrobials indolicidin and bactenecin were added (50–100 μg/mL) and the tubes were incubated at 30° C. for one hour without shaking. Appropriate dilutions were spread on LB agar plates and incubated overnight at 37° C. to determine the extent of survival. The results were confirmed by performing two independent experiments.
# B. polymyxa 10401 = test: as above; format: cell-based; details: one hour exposure at 30° C.
# Procedure: as §5
molecule,measurement,setting,value
CC(C)C[C@@H]1NC(=O)[C@H](CCCN)NC(=O)[C@H](C(C)C)NC(=O)[C@@H]2CCCN2C(=O)[C@@H](Cc2ccccc2)NC(=O)[C@H](CC(C)C)NC(=O)[C@H](CCCN)NC(=O)[C@H](C(C)C)NC(=O)[C@@H]2CCCN2C(=O)[C@@H](Cc2ccccc2)NC1=O [gramicidin S] (cyclo(V[Orn]L[dF]PV[Orn]L[dF]P)),concentration that completely inhibits growth,Gram-negative bacteria,3 to 12.5 µg/mL
same,"effect on D. vulgaris, in words",[1]; 100 μg/mL added to P. fragi K biofilm 24 hours before D. vulgaris,the onset of D. vulgaris-induced corrosion of mild steel was delayed
same,time after D. vulgaris addition without change / increase in Rp,[1]; 100 μg/mL added to P. fragi K biofilm before D. vulgaris,≥ 80 h
same,"effect on D. vulgaris, in words",[2],completely effective in inhibiting the growth of D. vulgaris
same,reduction of viability,"D. vulgaris (ATCC 29579); D. vulgaris, 1 h, 100 μg/mL",93%
same,concentration with inhibitory effect,D. vulgaris (ATCC 29579); this study,50 to 100 µg/mL
same,reduction of viability,"D. gigas (ATCC 19364); D. gigas, 1 h, 25 μg/mL",92–96%
same,concentration with inhibitory effect,D. gigas (ATCC 19364); this study,50 to 100 µg/mL
same,"growth of P. fragi K, in words",P. fragi K,grew to saturation
NC[C@H]1O[C@H](O[C@H]2[C@H](O)[C@@H](O[C@H]3O[C@H](CO)[C@@H](O)[C@H](N)[C@H]3O)[C@H](N)C[C@@H]2N)[C@H](O)[C@@H](O)[C@@H]1O [kanamycin],inhibition at 100 µg/mL,"E. coli BK6; Escherichia coli, BK6",100%
same,E. coli BK6 CFU/mL,E. coli BK6,4 × 10^3 CFU/mL
same,red (dead) share of the sample,wild-type P. fragi,approximately 75%
ILPWKWPWWWPWRR [Ind-OH],inhibition,Staphylococcus aureus,99.9%
same,Fold-reduction in cell number,B. subtilis WB600; 50 μg/mL,"20,000"
same,Fold-reduction in cell number,B. subtilis WB600; 100 μg/mL,"40,000"
same,inhibition,Escherichia coli,99.9%
same,fold less effective than the amidated form of indolicidin,D. vulgaris (ATCC 29579); 25 μg/mL,174 fold
same,fold less effective than the amidated form of indolicidin,D. gigas (ATCC 19364); 25 μg/mL,10 fold
same,Fold-reduction in cell number,B. subtilis BE1500; 50 μg/mL,6000
same,Fold-reduction in cell number,B. subtilis BE1500; 100 μg/mL,"10,000"
same,Fold-reduction in cell number,B. polymyxa 10401; 50 μg/mL,4
same,Fold-reduction in cell number,B. polymyxa 10401; 100 μg/mL,4

# Reference: US7060486B2, “Inhibition of sulfate-reducing-bacteria-mediated degradation using bacteria which secrete antimicrobials” (priority 1998, dated 2006)
